In data set [1] the test system is P. falciparum field isolates. Nature of the data set: Ex vivo drug susceptibility (schizont maturation) of P. falciparum field isolates. Type of data set: cell-based. The note with it: Plasmodium falciparum, read-out: P. falciparum IC50. As for the experimental part: (§1) Further, compounds of the invention (Examples 2 and 13) were also tested against field isolates of falciparum and vivax malaria, along with three control antimalarials as described in the protocol below.
(§2) Ex Vivo Activity of Examples 2 and 13 Against Drug Resistant P. falciparum and P. Vivax Field Isolates
(§3) Standard antimalarial drugs chloroquine (CQ), amodiaquine (AQ), piperaquine (PIP), mefloquine (MFQ), and artesunate (AS) and compounds of the invention were prepared as 1 mg/mL stock solutions in H2O or dimethyl sulfoxide (DMSO) according to the manufacturers' instructions. Drug plates were pre-dosed by diluting the compounds in 50% Methanol followed by lyophilisation and stored at 4° C.
(§4) Plasmodium isolates were collected from patients attending malaria clinics in Timika (Papua, Indonesia), a region endemic for multi-drug-resistant strains of P. vivax and P. falciparum. Patients with symptomatic malaria presenting to an outpatient facility were recruited into the study if singly infected with P. falciparum or P. vivax, with a parasitaemia of between 2,000 μl-1 and 80,000 μl-1, and the majority (>80%) of parasites at ring stage of development. Venous blood (5 mL) was collected by venipuncture and after removal of host white blood cells by using cellulose (Sigma-Aldrich, Australia) filtration, packed infected red blood cells (iRBCs) were used for the ex vivo drug susceptibility assay.
(§5) Drug susceptibility of P. vivax and P. falciparum isolates was measured using a protocol modified from the WHO microtest as described previously (Marfurt et al., 2011, Antimicrob Agents Chemother., 55(9):4461). Two hundred μL of a 2% haematocrit Blood Media Mixture (BMM), consisting of RPMI 1640 medium plus 10% AB+ human serum (P. falciparum) or McCoy's 5 A medium plus 20% AB+ human serum (P. vivax), was added to each well of pre-dosed drug plates containing 11 serial concentrations (2-fold dilutions) of the antimalarials (maximum concentration shown in brackets) CQ (2,992 nM), AQ (158 nM), PIP (1,029 nM), MFQ (338 nM), AS (49 nM), and a compound of the invention (2,146 nM). A candle jar was used to mature the parasites at 37.0° C. for 35-56 hours.
(§6) Thick blood films made from each well were stained with 5% Giemsa solution for 30 minutes and examined microscopically. The number of schizonts per 200 asexual stage parasites was determined for each drug concentration and normalised to the control well. The dose-response data were analysed using nonlinear regression analysis (WinNonLn 4.1, Pharsight Corporation) and the IC50 value derived using an inhibitory sigmoid Emax model. […] Drug plate quality was assured by running schizont maturation assays (two independent experiments) with the chloroquine-resistant strain K1 and the chloroquine-sensitive strain FC27.
(§7) For microscopy slide reading QC, two randomly selected drugs per isolate were read by a second microscopist. […] If necessary, discrepant results were resolved by a third reading by an expert microscopist.

In the next data set the test system is P. vivax field isolates. Briefly: Ex vivo drug susceptibility (schizont maturation) of P. vivax field isolates. Type of data set: cell-based. The settings on record: Plasmodium vivax, read-out: P. vivax IC50. The procedure: as §1, §2, §3, §4, §5, §6, §7
For data set [2], the system named is chloroquine sensitive NF54 strain of P. falciparum. Nature of the data set: In vitro antiplasmodial activity (SYBR I), NF54 strain. Type of data set: cell-based, Plasmodium falciparum. The procedure:
(§8) Measuring In Vitro Antiplasmodial Activity
(§9) The test samples were tested in duplicate on two separate occasions against chloroquine sensitive NF54 (MRA-1000, MR4, ATCC, Manassas, Va.) and chloroquine-resistant K1 strains of P. falciparum. A modified method of Trager and Jensen was employed to maintain continuous in vitro cultures of asexual blood stages of P. falciparum (Trageret al., 1976, Science, 193, 673-675). Quantitative assessment of antiplasmodial activity in vitro was determined using the SYBR I method as described earlier (Johnson et al., 2007, Antimicrob. Agents Chemother., 51, 1926-1933).
(§10) The percent inhibition with respect to the drug-free control was plotted against the logarithm of drug concentration. The growth inhibition curves were fitted by nonlinear regression using the sigmoidal dose-response (variable slope) formula to yield the concentration-response curves. […] Chloroquine diphosphate (CQ) (Sigma), artesunate (Sigma), and pyrimethamine were used as reference drugs in all experiments.

The subject of data set [3] is chloroquine-resistant K1 strain of P. falciparum. Briefly: In vitro antiplasmodial activity (SYBR I), K1 strain. Type of data set: cell-based, Plasmodium falciparum. As for the experimental part: as §8, §9, §10
Data set [4] is described as follows: Identification of metabolites of Example 13, rat liver microsomes or hepatocytes. Type of data set: in vitro ADME. The settings on record: metabolite of Example 13. As for the experimental part: (§11) Identification of In Vivo Metabolites
(§12) Metabolites of Example 13 were identified both in vitro and in vivo using the following models: • In vitro: The compound of Example 13 was incubated with human (HLM) or rat (RLM) liver microsomes (1 mg/ml protein concentration in 100 mM phosphate buffer, pH 7.4) at a final concentration of 10 μM in the presence of 2 mM NADPH. The reactive intermediates were trapped by including 2 mM glutathione (GSH) or N-acetyl cysteine (NAC) in the reaction mix. • In vivo in bile duct cannulated rats: Example 13 was administered intravenously (IV) as a bolus through the jugular vein at a dose of 2 mg/kg or 4 mg/kg of body weight for control (n=3) or BDC rats (n=2), respectively. Blood samples were collected at 0.083, 0.25, 0.5, 1, 2, 4, 6, 8 and 24 h through the carotid artery, bile samples were collected at 0-2 h, 2-4 h, 4-6 h, 6-8 h and 8-24 h intervals and urine samples were collected at 0-8 h and 8-24 h intervals. The bile and urine samples were analyzed for the presence of parent and metabolites and blood samples were analyzed for the presence of parent.
In general terms: Liver microsomes are a subcellular fraction often used to study metabolism.

The nature of data set [5]: Identification of metabolites of Example 13, human liver microsomes or hepatocytes. Type of data set: in vitro ADME. The settings on record: metabolite of Example 13. The procedure: as §11, §12
Data set [6] in a line: Identification of metabolites of Example 13, mouse liver microsomes or hepatocytes. Type of data set: in vitro ADME. The settings on record: metabolite of Example 13. As for the experimental part: as §11, §12
[7] abbreviates: Plasmodium falciparum, NF54 strain, chloroquine sensitive, read-out: Pf IC50—NF54.
[8] abbreviates: Plasmodium falciparum, K1 strain, chloroquine-resistant, read-out: Pf IC50—K1.
[9] abbreviates: Plasmodium falciparum, NF54, read-out: Pf IC50—NF54.
The mark [10] stands for this setting: Plasmodium falciparum, K1, read-out: Pf IC50—K1.

Where a name gives a salt, the structure may show the parent alone. Read-outs that look alike come from different tables or passages of the source.

The term IC50 denotes the concentration that gives 50% inhibition. Consider `C[C@H]1[C@H](OC(=O)CCC(=O)O)O[C@@H]2O[C@@]3(C)CC[C@H]4[C@H](C)CC[C@@H]1[C@@]24OO3` [Artesunate, artesunate], for which the concentration for half-maximal inhibition (IC50) in data set [1] was determined as 15.1 nM; with P. vivax field isolates, 4.79 nM.

Consider `CCc1nc(N)nc(N)c1-c1ccc(Cl)cc1` [Pyrimethamine, pyrimethamine, reference compound], for which the half-maximal inhibitory concentration (IC50) was found to be 64 nM in data set [2] (setting [7]) and 7900 nM in data set [3] (setting [8]).

For the compound `Clc1ccc2c(N3CCN(CCCN4CCN(c5ccnc6cc(Cl)ccc56)CC4)CC3)ccnc2c1` [Piperaquine, piperaquine], the IC50 in data set [1] amounted to 16.9 nM; in the data set on P. vivax field isolates it was 5.9 nM.

For `Cc1nc(Nc2ncc(N3CCN(C)[C@H](C)C3)c(Nc3cnn(C)n3)n2)cc(C2CC2)c1F` [Example 15, (R)—N2-(4-cyclopropyl-5-fluoro-6-methylpyridin-2-yl)-5-(3,4-dimethylpiperazin-1-yl)-N4-(2-methyl-2H-1,2,3-triazol-4-yl)pyrimidine-2,4-diamine], the IC50 in data set [2] (setting [7]) amounted to 17 nM; in data set [3] (setting [8]), 37 nM.

In the case of `Cc1nc(Nc2ncc(N3CCN[C@H](C)C3)c(Nc3cc(C)n(C)n3)n2)cc(C2CC2)c1Cl` [Example 5, (R)—N2-(5-chloro-4-cyclopropyl-6-methylpyridin-2-yl)-N4-(1,5-dimethyl-1H-pyrazol-3-yl)-5-(3-methylpiperazin-1-yl)pyrimidine-2,4-diamine dihydrochloride], the concentration for half-maximal inhibition (IC50) is 23 nM in data set [2] (setting [9]) and 48 nM in data set [3] (setting [10]).

For “(R)—N2-(5-Fluoro-4-cyclopropyl-6-methylpyridin-2-yl)-N4-(2-methyl-2H-1,2,3-triazol-4-yl)-5-(3-methylpiperazin-1-yl)pyrimidine-2,4-diamine dihydochloride [Example 12]”, the half-maximal inhibitory concentration (IC50) in data set [2] (NF54 strain, chloroquine sensitive, read-out: Pf IC50—NF54) was 39 nM; in data set [3] (K1 strain, chloroquine-resistant, read-out: Pf IC50—K1), 82 nM.

For `Cc1nc(Nc2ncc(N3CCN[C@H](C)C3)c(Nc3cn(C)nn3)n2)cc(C2CC2)c1Cl` [Example 11, (R)—N2-(5-chloro-4-cyclopropyl-6-methylpyridin-2-yl)-N4-(1-methyl-1H-1,2,3-triazol-4-yl)-5-(3-methylpiperazin-1-yl)pyrimidine-2,4-diamine dihydrochloride], the concentration for half-maximal inhibition (IC50) in data set [2] (setting [9]) was determined as 30 nM; in data set [3] (setting [10]), 50 nM.

Regarding `Cc1nc(Nc2ncc(N3CCN[C@H](C)C3)c(Nc3cn(C)nn3)n2)cc(C2CC2)c1F` [Example 4, (R)—N2-(4-cyclopropyl-5-fluoro-6-methylpyridin-2-yl)-N4-(1-methyl-1H-1,2,3-triazol-4-yl)-5-(3-methylpiperazin-1-yl)pyrimidine-2,4-diamine dihydrochloride], the IC50 in data set [2] (setting [9]) stood at 33 nM; in data set [3] (setting [10]), 51 nM.

For the compound `CCn1nc(Nc2nc(Nc3cc(C4CC4)c(F)c(C)n3)ncc2N2CCN[C@H](C)C2)cc1C` [Example 3, (R)—N2-(4-cyclopropyl-5-fluoro-6-methylpyridin-2-yl)-N4-(1-ethyl-5-methyl-1H-pyrazol-3-yl)-5-(3-methylpiperazin-1-yl)pyrimidine-2,4-diamine dihydrochloride], the half-inhibitory concentration (IC50) in data set [2] (setting [9]) is 17 nM; in data set [3] (setting [10]) it was 14 nM.

Consider `Cc1nc(Nc2ncc(N3CCN[C@H](C)C3)c(Nc3cc(C)n(C)n3)n2)cc(C2CC2)c1F` [Example 2, (R)—N2-(4-cyclopropyl-5-fluoro-6-methylpyridin-2-yl)-N4-(1,5-dimethyl-1H-pyrazol-3-yl)-5-(3-methylpiperazin-1-yl)pyrimidine-2,4-diamine dihydrochloride], for which the half-inhibitory concentration (IC50) in data set [1] is 63.6 nM; in the data set with P. vivax field isolates, 81 nM; in data set [2] (setting [9]), 14 nM; in data set [3] (setting [10]), 19 nM. Also, the “Presence of proposed metabolite (N-demethylation) in liver microsomes or hepatocytes” value in data set [4], in data set [5] and in data set [6] was “✓” in each case.

For the compound `Cc1nc(Nc2ncc(N3CCN(C)CC3)c(Nc3cn(C)nn3)n2)cc(C2CC2)c1F` [Example 1, N2-(4-cyclopropyl-5-fluoro-6-methylpyridin-2-yl)-N4-(1-methyl-1H-1,2,3-triazol-4-yl)-5-(4-methylpiperazin-1-yl)pyrimidine-2,4-diamine], the figures for the IC50 in data set [2] (setting [7]) and in data set [3] (setting [8]) were 15 nM and 24 nM, respectively.

As to `Cc1nc(Nc2ncc(N3CCN[C@H](C)C3)c(Nc3cc(C)n(C)n3)n2)cc(C2CCC2)c1F` [Example 9, (R)—N2-(4-cyclobutyl-5-fluoro-6-methylpyridin-2-yl)-N4-(1,5-dimethyl-1H-pyrazol-3-yl)-5-(3-methylpiperazin-1-yl)pyrimidine-2,4-diamine dihydrochloride], the results for the IC50 in data set [2] (setting [9]) and in data set [3] (setting [10]) were 25 nM and 48 nM, respectively.

On to `Cc1nc(Nc2ncc(N3CCN(C)[C@H](C)C3)c(Nc3cn(C)nn3)n2)cc(C2CC2)c1F` [Example 14, (R)—N2-(4-cyclopropyl-5-fluoro-6-methylpyridin-2-yl)-5-(3,4-dimethylpiperazin-1-yl)-N4-(1-methyl-1H-1,2,3-triazol-4-yl)pyrimidine-2,4-diamine], for which the concentration for half-maximal inhibition (IC50) was determined as 33 nM in data set [2] (setting [7]) and 69 nM in data set [3] (setting [8]).

For `Cc1nc(Nc2ncc(N3CCN[C@H](C)C3)c(Nc3cc(C)n(C)n3)n2)cc(C2CC2)c1C#N` [Example 6, (R)-4-cyclopropyl-6-((4-((1,5-dimethyl-1H-pyrazol-3-yl)amino)-5-(3-methylpiperazin-1-yl)pyrimidin-2-yl)amino)-2-methylnicotinonitrile dihydrochloride], the IC50 in data set [2] (setting [9]) was 31 nM; in data set [3] (setting [10]), 45 nM.

As for `CCc1cc(Nc2ncc(N3CCNC(C)C3)c(Nc3cc(C)n(C)n3)n2)nc(C)c1F` (stereo in doubt) [Example 8, (R)—N4-(1,5-dimethyl-1H-pyrazol-3-yl)-N2-(4-ethyl-5-fluoro-6-methylpyridin-2-yl)-5-(3-methylpiperazin-1-yl)pyrimidine-2,4-diamine dihydrochloride], the half-maximal inhibitory concentration (IC50) in data set [2] (setting [9]) was found to be 35 nM; in data set [3] (setting [10]), 44 nM.

As to `CCN(CC)CCCC(C)Nc1ccnc2cc(Cl)ccc12` (stereo not drawn) [Chloroquine, chloroquine, reference compound], the concentration for half-maximal inhibition (IC50) in data set [1] was 60.8 nM; in the data set with P. vivax field isolates it was 40.2 nM; in data set [2] (setting [9]), 11 nM; in data set [3] (setting [10]) it was over 150 nM.

The values are drawn from patent US9957253B2, “Triaminopyrimidine compounds useful for preventing or treating malaria” (MMV MEDICINES FOR MALARIA VENTURE, priority 2014, dated 2018).
